Data on two compounds can be found in patent US4714699A, “2-tolylmorpholine derivatives and pharmaceutical compositions” (Societe Anonyme Dite: Laboratoire L. Lafon, priority 1983, dated 1987).

The conditions of data set [1]: from EP-A-80,940, page 13, lines 6-10; cited from earlier work.
Data set [2] in a line: cardiovascular study in dogs. Format: in vivo.
Data set [3] can be described thus: pretoxicity (LD-O, maximum non-lethal dose). Format: in vivo, male mice. Particulars: intraperitoneally, male mice.
A short description of data set [4]: overall behavior and reactivities in mice. Type of data set: in vivo, male mice. Particulars: mice.
Data set [5] can be described thus: neuropsychopharmacological study, overall findings. Format: in vivo, mice, rats. The note with it: weak doses where stated.
The next data set is described as follows: overall behavior in rats. Type of data set: in vivo, male rats. The note with it: 64 mg/kg i.p., rats. The method, then: In the following tests, CRL 40 875, in solution in distilled water, was administered intraperitoneally in a volume of 20 ml/kg to male mice and 5 ml/kg to male rats.
The toxicological and neuropsychopharmacological studies undertaken in accordance with the procedures described above for CRL 40 875 enabled the following observations to be made: […]

For another data set, the system named is β1. The data set is described as follows: β1 effect in dogs. Particulars: intraduodenal, anesthetized dogs. Format: in vivo.
For another data set, the system named is β2. As to the kind of experiment: β2 effect in dogs. Type of data set: in vivo. The note with it: intraduodenal, anesthetized dogs.
The mark [6] stands for this setting: anesthetized dogs, intraduodenal (CRL 40 903: then intravenous).
The mark [7] stands for this setting: intraduodenal, anesthetized dogs.

Turning to `Cc1ccccc1C1CN(C)CCO1` (stereo not shown) [CRL 40 915, 2-o-tolyl-4-methylmorpholine], the “variation of sedative effects with dose” value in data set [1] is listed as “no sedation at a given dose, significant sedation at the next highest dose used”.

`CCN1CCOC(O)(c2cccc(C(F)(F)F)c2)C1.Cl` (stereo not shown) [CRL 41 092, 2-(m-trifluoromethylphenyl)-2-hydroxy-4-ethylmorpholine hydrochloride]: the minimal effective dose in data set [2] (Canis lupus familiaris, anesthetized dogs, intraduodenal (CRL 40 903: then intravenous), read-out: dose as from which femoral flow rate is increased) was no less than 1 mg/kg. In addition, in data set [2] (setting [6]), the “effect on blood pressure” value is given as “tends to increase the blood pressure” and the “effect on the hypertension induced by noradrenaline” value was “increases the hypertension induced by noradrenaline”. In data set [2] (as from 1 mg/kg intraduodenally, anesthetized dogs), the femoral flow rate entry is recorded as “greatly increases the femoral flow rate”. In data set [2] (dog, in vivo), the vasodilator property entry is listed as “particularly interesting as vasodilators”. For the same compound, in data set [2] (setting [7]), the “effect on heart beat” value is “does not modify the heart beat”; the “rectal and skin temperatures” value is “a reduction in the vertebral flow rate and also in the rectal and skin temperatures”; the vertebral flow rate result is reported as “a reduction in the vertebral flow rate”. Moreover, the “femoral flow rate after propanolol” value in data set [2] (propanolol injected at the end of the test, anesthetized dogs) is reported as “remaining above its control value”. In data set [2] (propanolol injected at the end of the test, anesthetized dogs, intraduodenal), the “effect of propanolol on heart beat and femoral flow rate” value is “very slightly reduces the heart beat and femoral flow rate”. In addition, in data set [3], the “LD-O (maximum non-lethal dose)” value is “greater than 256 mg/kg”. The hypothermia entry in data set [4] (32 mg/kg i.p.) is “moderate hypothermia”. Further, in data set [4] (128 mg/kg i.p.), the duration of sedation worked out at 0.5 h; the “fear reaction, reactivity to touch and muscular tonus” value is “a reduction in the fear reaction, the reactivity to touch and the muscular tonus”. For the same compound, the sedative effects result in data set [5] is recorded as “sedative effects”. For the same compound, the “sedation, reactivity to touch and muscular tonus” value in “overall behavior in rats” is “transistory sedation with a reduction in the reactivity to touch and the muscular tonus”. Besides, in the data set on β1, the β1 effect result is listed as “very slightly β1^-”. The β2 effect result with β2 was “very slightly β1^- and β2^-”.
